Measured values from patent publication US20220072089A1, “CANCER THERAPEUTIC COMPOSITIONS AND METHODS” (University of Vermont and State Agricultural College, priority 2018, published 2022).
Like-named read-outs stand apart in the source and are kept apart here.

What was measured:
[1] = tested on: Malignant mesothelioma (MM) cells; assay: Malignant mesothelioma cell viability (cell number), Example 1; type: cell-based; conditions: Homo sapiens
Protocol: Malignant mesothelioma (MM) cells were incubated with increasing concentrations of TS (0-10 μM) and TLK-199 (0-200 μM) for 48 hours and then assayed for cell number (viability).

MM cells = assay: Combinations administered to subjects with malignant mesothelioma, Example 8; type: in vivo
Protocol: Subjects with malignant mesothelioma (MM) are administered (1) thiostrepton (TS) and TLK-199, (2) TS, gentian violet (GV), and TLK or (3) GV and TLK-199.

[2] = tested on: patients with myelodysplatic syndrome; conditions: 50-600 mg/m^2 IV over 60 minutes; cited from earlier work
peroxiredoxin 3 (PRX3) = biological target: T1, peroxiredoxin 3 (PRX3) (Homo sapiens, UniProt P30048); assay: Covalent adduction of PRX3 in MM cells (reducing SDS-PAGE, western blot), Example 7; type: cell-based; conditions: 0, 2, 4 μM TS alone or with 30 μM TLK-199, 24 hours, FIG. 4
T1 construct: endogenous in cells
T1 sequence (P30048 62-256): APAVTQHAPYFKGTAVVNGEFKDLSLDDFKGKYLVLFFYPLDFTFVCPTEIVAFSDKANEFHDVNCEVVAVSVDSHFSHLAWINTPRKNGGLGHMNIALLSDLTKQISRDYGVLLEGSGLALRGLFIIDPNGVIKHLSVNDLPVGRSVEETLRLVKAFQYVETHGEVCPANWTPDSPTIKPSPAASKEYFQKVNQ
Protocol: Malignant mesothelioma (MM) cells were incubated with 0, 2,and 4 μM Thiostrepton (TS) alone or in the presence of 30 μM TLK-199 for 24 hours. Cell lysates were collected, and proteins were separated by reducing SDS-Polyacrylamide Gel Electrophoresis.

[3] = single agent, malignant mesothelioma cells, 48 hours, read-out: inhibitory concentration required to kill 50% of cells (IC50)

| SMILES | IC50 [1, 3] [nM] | effect of including TLK-199 on reduction in viability of MM cells (MM cells) | bone marrow maturation and cellularity [2] | clinical symptoms [2] | transfusion requirements [2] | covalent adduction of PRX3 (PRX3 dimer:monomer ratio) (peroxiredoxin 3 (PRX3)) | IC50 ([1]; 48 h, read-out: inhibitory concentration required to kill 50% of cells (IC50)) [nM] | IC50 ([1]; read-out: calculated IC50) [nM] |
| --- | --- | --- | --- | --- | --- | --- | --- | --- |
| CN(C)c1ccc(C(=C2C=CC(=[N+](C)C)C=C2)c2ccc(N(C)C)cc2)cc1 [GV, Gentian violet] | 150 |  |  |  |  |  |  |  |
| CCOC(=O)[C@@H](NC(=O)[C@H](CSCc1ccccc1)NC(=O)CC[C@H](N)C(=O)OCC)c1ccccc1 [TLK-199, (S)-ethyl 2-amino-5-(((R)-3-(benzylthio)-1-(((S)-2-ethoxy-2-oxo-1-phenylethyl)amino)-1-oxopropan-2-yl)amino)-5-oxopentanoate] | 45000 | synergistic effect | Improvement in bone marrow maturation and cellularity | improvement in clinical symptoms | reductions in transfusion requirements |  |  |  |
| C=C(NC(=O)C(=C)NC(=O)c1csc(C2=N[C@@H]3c4csc(n4)[C@H]4NC(=O)c5csc(n5)[C@H]([C@](C)(O)[C@@H](C)O)NC(=O)[C@H]5CSC(=N5)/C(=C/C)NC(=O)[C@H]([C@@H](C)O)NC(=O)c5csc(n5)[C@]3(CC2)NC(=O)[C@H](C)NC(=O)C(=C)NC(=O)[C@H](C)NC(=O)[C@H]([C@@H](C)CC)N[C@@H]2C=Cc3c([C@H](C)O)cc(nc3[C@H]2O)C(=O)O[C@@H]4C)n1)C(N)=O [TS, Thiostrepton] |  |  |  |  |  | PRX3 monomers were covalently crosslinked | ~1500 | 900 to 2400 |
